Here are results for 21 compounds from US11365199B2, “Pyrazole compounds as modulators of FSHR and uses thereof” (Merck Patent GmbH, priority 2013, dated 2022).

For one assay, the target named is T1, FSHR (Homo sapiens, UniProt P23945).
T1 construct: expressed in transfected cells; host or cells: CHO (Cho-FSHR-LUC-1-1-43)
T1 sequence (P23945 18-695): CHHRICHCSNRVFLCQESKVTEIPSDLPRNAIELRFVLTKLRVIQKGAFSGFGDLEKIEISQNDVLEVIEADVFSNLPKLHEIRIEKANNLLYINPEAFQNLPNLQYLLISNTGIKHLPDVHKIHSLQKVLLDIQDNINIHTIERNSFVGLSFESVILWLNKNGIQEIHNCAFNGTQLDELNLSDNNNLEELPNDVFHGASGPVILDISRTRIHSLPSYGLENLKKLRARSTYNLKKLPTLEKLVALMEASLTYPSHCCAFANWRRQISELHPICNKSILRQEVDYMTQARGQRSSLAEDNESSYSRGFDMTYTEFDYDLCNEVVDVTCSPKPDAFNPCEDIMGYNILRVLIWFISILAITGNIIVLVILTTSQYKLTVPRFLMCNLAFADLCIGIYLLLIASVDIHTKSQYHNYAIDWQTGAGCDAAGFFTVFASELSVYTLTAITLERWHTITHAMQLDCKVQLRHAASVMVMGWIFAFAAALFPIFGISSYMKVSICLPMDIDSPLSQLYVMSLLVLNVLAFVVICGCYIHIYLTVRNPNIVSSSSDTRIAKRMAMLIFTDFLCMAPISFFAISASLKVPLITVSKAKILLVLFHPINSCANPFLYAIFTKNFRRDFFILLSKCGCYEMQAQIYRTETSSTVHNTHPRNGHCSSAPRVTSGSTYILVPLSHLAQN
Description: EC50 of cyclic AMP production in CHO FSHR cells + EC20 FSH (Assay A). Type of assay: cell-based. The method in brief: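 cAMP HTRF read-out (665 nm/620 nm ratio) after 1 h at 37° C of Cho-FSHR-LUC cells treated with serially diluted test compound plus EC20 FSH ([…]) and IBMX (final 200 μM). Responses given as percent of maximal FSH-standard effect.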

Assay [1] deals with T2, follicle-stimulating hormone (FSH) receptor (Rattus norvegicus, UniProt P20395).
T2 construct: endogenous in cells; host or cells: primary rat granulosa cells
T2 sequence (P20395 18-692): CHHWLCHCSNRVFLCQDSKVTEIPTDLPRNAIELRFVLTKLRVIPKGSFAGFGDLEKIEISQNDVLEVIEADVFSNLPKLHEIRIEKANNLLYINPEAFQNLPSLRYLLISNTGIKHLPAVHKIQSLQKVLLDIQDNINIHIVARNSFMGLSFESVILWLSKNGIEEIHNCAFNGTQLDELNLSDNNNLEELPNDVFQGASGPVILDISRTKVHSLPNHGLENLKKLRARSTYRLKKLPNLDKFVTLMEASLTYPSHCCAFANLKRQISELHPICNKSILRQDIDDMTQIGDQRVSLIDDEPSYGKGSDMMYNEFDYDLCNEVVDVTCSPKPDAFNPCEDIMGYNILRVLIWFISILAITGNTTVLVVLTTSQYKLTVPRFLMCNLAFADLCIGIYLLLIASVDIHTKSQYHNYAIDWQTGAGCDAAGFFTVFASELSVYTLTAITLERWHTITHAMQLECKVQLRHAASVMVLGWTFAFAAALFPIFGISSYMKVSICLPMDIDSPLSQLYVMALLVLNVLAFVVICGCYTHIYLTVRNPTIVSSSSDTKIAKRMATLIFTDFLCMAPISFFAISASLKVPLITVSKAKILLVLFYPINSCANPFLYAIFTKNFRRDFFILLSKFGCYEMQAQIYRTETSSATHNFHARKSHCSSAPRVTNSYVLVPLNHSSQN
Description: Rat granulosa EC50 FSH (Assay B). The format is cell-based. The method, then: Rat Granulosa EC50 FSH (Assay B)
The assay was performed pursuant to the teaching of Yanofsky et al. (2006) Allosteric activation of the follicle-stimulating hormone (FSH) receptor by selective, nonpeptide agonists (JBC 281(19): 13226-13233, which is incorporated by reference in the disclosure of the invention).

[2] abbreviates: CHO FSHR cells + EC20 FSH, cAMP HTRF, read-out: Assay A: EC50 of cyclic AMP production.
[3] abbreviates: rat granulosa cells, read-out: Assay B: Rat granulosa EC50 FSH.
Setting [4] is: read-out: Assay B: percental effect (response) relative to the maximum response of the FSH standard.

Read-outs that look alike come from different tables or passages of the source.

Turning to `COc1cc2c(cc1-c1cn(C)nn1)-c1c(c(C(=O)N(C)C(C)(C)C)nn1-c1ccsc1)CO2` [Compound 153, 7-Methoxy-8-(1-methyl-1H-[1,2,3]triazol-4-yl)-1-thiophen-3-yl-1,4-dihydro-chromeno[4,3-c]pyrazole-3-carboxylic acid tert-butyl-methyl-amide], the 50% effective concentration (EC50) (on FSHR (setting [2]); in assay [1] (setting [3])) was under 100 nM in each case.
Turning to `[2H]C([2H])([2H])OCC1(N(C(=O)c2nn(-c3ccsc3)c3c2COc2cc(OC)c(-c4ccnn4C)cc2-3)C([2H])([2H])[2H])COC1` [Compound 119], the results for the concentration for a half-maximal effect (EC50) (on FSHR (setting [2]); in assay [1] (setting [3])) were under 100 nM and 1000 to 5000 nM, respectively.
With `COc1cc2c(cc1-c1ccn(C)c1)-c1c(c(C(=O)N3CCN(C(=O)OC(C)(C)C)CC3(C)C)nn1-c1ccsc1)CO2` [Compound 157, 4-[7-Methoxy-8-(1-methyl-1H-pyrrol-3-yl)-1-thiophen-3-yl-1,4-dihydro-chromeno[4,3-c]pyrazole-3-carbonyl]-3,3-dimethyl-piperazine-1-carboxylic acid tert-butyl ester], the EC50 (at FSHR (setting [2]); in assay [1] (setting [3])) was 100 to 1000 nM in each case.
As for `COc1cc2c(cc1OC(C)C)-c1c(c(C(=O)N3CCCC(C(=O)N4CCC4)CC3)nn1-c1ccsc1)CO2` (stereo not drawn) [Compound 26, [4-(Azetidine-1-carbonyl)-azepan-1-yl]-(8-isopropoxy-7-methoxy-1-thiophen-3-yl-1,4-dihydro-chromeno[4,3-c]pyrazol-3-yl)-methanone], the figures for the half-maximal effective concentration (EC50) (on FSHR (setting [2]); in assay [1] (setting [3])) were 1000 to 5000 nM and over 5000 nM, respectively.
As to `COc1cc2c(cc1CC(C)C)-c1c(c(C(=O)N(C)C(C)(C)C)nn1-c1cccs1)CO2` [Compound 91, 8-Isobutyl-7-methoxy-1-thiophen-2-yl-1,4-dihydro-chromeno[4,3-c]pyrazole-3-carboxylic Acid tert-butyl-methyl-amide], the concentration giving a half-maximal response (EC50) at FSHR (setting [2]) was under 100 nM; in assay [1] (setting [3]) it was 1000 to 5000 nM.
As for `COc1cc2c(cc1-c1cccnc1)-c1c(c(C(=O)N(C)C(C)(C)C)nn1-c1ccsc1)CO2` [Compound 2, 7-Methoxy-8-pyridin-3-yl-1-thiophen-3-yl-1,4-dihydro-chromeno[4,3-c]pyrazole-3-carboxylic Acid tert-butyl-methyl-amide], the concentration giving a half-maximal response (EC50) at FSHR (setting [2]) was under 100 nM. In assay [1] (setting [4]), the Emax at 30 µM stood at 54%.
As to `COc1cc2c(cc1C=C(C)C)-c1c(c(C(=O)NC(C)(C)CO)nn1-c1ccsc1)CO2` [Compound 10, 7-Methoxy-8-(2-methyl-propenyl)-1-thiophen-3-yl-1,4-dihydro-chromeno[4,3-c]pyrazole-3-carboxylic acid (2-hydroxy-1,1-dimethyl-ethyl)-amide], the half-maximal effective concentration (EC50) at FSHR (setting [2]) was in the range of 100 to 1000 nM; in assay [1] (setting [3]) it was 1000 to 5000 nM.
In the case of `COc1cc2c(cc1-c1ccn(C)n1)-c1c(c(C(=O)N(C)C(C)(C)C)nn1-c1ccsc1)CO2` [Compound 63, 7-Methoxy-8-(1-methyl-1H-pyrazol-3-yl)-1-thiophen-3-yl-1,4-dihydro-chromeno[4,3-c]pyrazole-3-carboxylic acid tert-butyl-methyl-amide], the 50% effective concentration (EC50) is under 100 nM at FSHR (setting [2]) and 100 to 1000 nM in assay [1] (setting [3]).
In the same order, the values of `COc1cc2c(cc1-c1cccnc1)-c1c(c(C(=O)N3CCCN(C(=O)C4CCC4)CC3)nn1-c1ccsc1)CO2` [Compound 3, (4-Cyclobutanecarbonyl-[1,4]diazepan-1-yl)-(7-methoxy-8-pyridin-3-yl-1-thiophen-3-yl-1,4-dihydro-chromeno[4,3-c]pyrazol-3-yl)-methanone] are under 100 nM and 1000 to 5000 nM.
In the case of `COc1cc2c(cc1-c1c(C)nn(C)c1C)-c1c(c(C(=O)N3CCOCC3(C)C)nn1-c1ccsc1)CO2` [Compound 121, (3,3-Dimethyl-morpholin-4-yl)-[7-methoxy-1-thiophen-3-yl-8-(1,3,5-trimethyl-1H-pyrazol-4-yl)-1,4-dihydro-chromeno[4,3-c]pyrazol-3-yl]-methanone], the results for the EC50 (at FSHR (setting [2]); in assay [1] (setting [3])) were under 100 nM and over 5000 nM, respectively.
As to `[2H]C([2H])([2H])N(C(=O)c1nn(-c2ccsc2)c2c1COc1cc(OC)c(CC(C)C)cc1-2)C1(C)COC1` [Compound 163], the EC50 at FSHR (setting [2]) is under 100 nM; in assay [1] (setting [3]) it was 100 to 1000 nM.
Consider `COc1cc2c(cc1Br)-c1c(c(C(=O)N(C)C(C)(C)C)nn1-c1ccsc1)CO2` [Compound 4, 8-Bromo-7-methoxy-1-thiophen-3-yl-1,4-dihydro-chromeno[4,3-c]pyrazole-3-carboxylic Acid tert-butyl-methyl-amide], for which the concentration for a half-maximal effect (EC50) at FSHR (setting [2]) is 100 to 1000 nM. The Emax at 6 µM in assay [1] (setting [4]) came to 62%.
For the compound `[2H]C([2H])([2H])OCC1(N(C(=O)c2nn(-c3ccsc3)c3c2COc2cc(OC)c(-c4ccn(C)c4)cc2-3)C([2H])([2H])[2H])COC1` [Compound 113], the EC50 is under 100 nM at FSHR (setting [2]) and 100 to 1000 nM in assay [1] (setting [3]).
Turning to `COc1cc2c(cc1C1CCOC1)-c1c(c(C(=O)N(C)C(C)(C)C)nn1-c1ccsc1)CO2` (stereo not drawn) [Compound 194, 7-Methoxy-8-(tetrahydro-furan-3-yl)-1-thiophen-3-yl-1,4-dihydro-chromeno[4,3-c]pyrazole-3-carboxylic Acid tert-butyl-methyl-amide], the results for the EC50 (on FSHR (setting [2]); in assay [1] (setting [3])) were under 100 nM and 100 to 1000 nM, respectively.
As to `COc1cc2c(cc1-c1cnn(C3CC3)c1)-c1c(c(C(=O)N3CCOCC3(C)C)nn1-c1ccsc1)CO2` [Compound 215], the results for the EC50 (at FSHR (setting [2]); in assay [1] (setting [3])) were under 100 nM and 100 to 1000 nM, respectively.
On the same counts, the results for `COc1cc2c(cc1-c1ncco1)-c1c(c(C(=O)N(C)C(C)(C)C)nn1-c1ccsc1)CO2` [Compound 132, 7-Methoxy-8-oxazol-2-yl-1-thiophen-3-yl-1,4-dihydro-chromeno[4,3-c]pyrazole-3-carboxylic acid tert-butyl-methyl-amide] are under 100 nM and 100 to 1000 nM.
For the compound `COc1cc2c(cc1OC(C)C)-c1c(c(C(=O)N(C)C(C)(C)C)nn1-c1ccsc1)CO2` [Compound 19, 8-Isopropoxy-7-methoxy-1-thiophen-3-yl-1,4-dihydro-chromeno[4,3-c]pyrazole-3-carboxylic Acid tert-butyl-methyl-amide], the EC50 on FSHR (setting [2]) is under 100 nM; in assay [1] (setting [3]), 1000 to 5000 nM.
On the same counts, the results for `COc1cc2c(cc1CC(C)C)-c1c(c(C(=O)N(C)C(C)(C)C)nn1-c1ccsc1)CO2` [Compound 5, 8-Isobutyl-7-methoxy-1-thiophen-3-yl-1,4-dihydro-chromeno[4,3-c]pyrazole-3-carboxylic Acid tert-butyl-methyl-amide] are under 100 nM and 1000 to 5000 nM.
Regarding `[2H]C([2H])([2H])N(C(=O)c1nn(-c2ccsc2)c2c1COc1cc(OC)c(-c3ccn(C)c3)cc1-2)C1CCOC1` (stereo not drawn) [Compound 146], the EC50 (on FSHR (setting [2]); in assay [1] (setting [3])) was 100 to 1000 nM throughout.
On to `COc1cc2c(cc1C1=NC([Si](C)(C)C)N=N1)-c1c(c(C(=O)N3CCOCC3(C)C)nn1-c1ccsc1)CO2` (stereo not drawn) [Compound 139, (3,3-Dimethyl-morpholin-4-yl)-[7-methoxy-1-thiophen-3-yl-8-(5-trimethylsilanyl-5H-[1,2,4]triazol-3-yl)-1,4-dihydro-chromeno[4,3-c]pyrazol-3-yl]-methanone], for which the half-maximal effective concentration (EC50) was under 100 nM on FSHR and 1000 to 5000 nM in assay [1].
Turning to `COc1cc2c(cc1C1=CCCC1)-c1c(c(C(=O)N(C)C(C)(C)C)nn1-c1ccsc1)CO2` [Compound 149, 8-Cyclopent-1-enyl-7-methoxy-1-thiophen-3-yl-1,4-dihydro-chromeno[4,3-c]pyrazole-3-carboxylic acid tert-butyl-methyl-amide], the results for the EC50 (at FSHR (setting [2]); in assay [1] (setting [3])) were under 100 nM and 100 to 1000 nM, respectively.

The term EC50 denotes the midpoint of the concentration-response curve.
